# Patent publication EP0840781B1, “METHODS AND DEVICES FOR THE REMOVAL OF PSORALENS FROM BLOOD PRODUCTS” (Cerus Corporation, priority 1995, dated 1996)
# Where two headings read alike, the source gives them in different places.
# Tested on: Salmonella typhimurium tester strains TA97a, TA98, TA100, TA102, TA1537 and TA1538
# Summary of the method: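 Ames pre-incubation test in S. typhimurium TA97a, TA98, TA1537, TA1538 (frameshift) and TA100, TA102 (base-substitution), with or without 10% Aroclor 1254-induced rat liver S-9. Test solutions at 0–500 µg/mL pre-incubated 20 min at 37 °C, plated in histidine/biotin top agar; revertant colonies counted after 44 h at 37 °C.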
smiles,measurement,setting,value
"Cc1oc2c(C)c3oc(=O)cc(C)c3cc2c1CN [AMT, 4'-Aminomethyl-4,5',8-trimethylpsoralen, reference compound]","revertant colonies, TA97a +S9",0.1 µg/plate,-23
same,"revertant colonies, TA97a -S9",0.1 µg/plate,14
same,"revertant colonies, TA98 +S9",0.1 µg/plate,1
same,"revertant colonies, TA98 -S9",0.1 µg/plate,3
same,"revertant colonies, TA100 +S9",0.1 µg/plate,-16
same,"revertant colonies, TA100 -S9",0.1 µg/plate,-10
same,"revertant colonies, TA102 +S9",0.1 µg/plate,-20
same,"revertant colonies, TA102 -S9",0.1 µg/plate,27
same,"revertant colonies, TA1537 +S9",0.1 µg/plate,2
same,"revertant colonies, TA1537 -S9",0.1 µg/plate,0
same,"revertant colonies, TA1538 +S9",0.1 µg/plate,3
same,"revertant colonies, TA1538 -S9",0.1 µg/plate,3
same,"revertant colonies, TA97a +S9",0.5 µg/plate,32
same,"revertant colonies, TA97a -S9",0.5 µg/plate,9
same,"revertant colonies, TA98 +S9",0.5 µg/plate,3
same,"revertant colonies, TA98 -S9",0.5 µg/plate,5
same,"revertant colonies, TA100 +S9",0.5 µg/plate,-12
same,"revertant colonies, TA100 -S9",0.5 µg/plate,13
same,"revertant colonies, TA102 +S9",0.5 µg/plate,5
same,"revertant colonies, TA102 -S9",0.5 µg/plate,47
same,"revertant colonies, TA1537 +S9",0.5 µg/plate,2
same,"revertant colonies, TA1537 -S9",0.5 µg/plate,3
same,"revertant colonies, TA1538 +S9",0.5 µg/plate,13
same,"revertant colonies, TA1538 -S9",0.5 µg/plate,4
same,"revertant colonies, TA97a +S9",1 µg/plate,32
same,"revertant colonies, TA97a -S9",1 µg/plate,54
same,"revertant colonies, TA98 +S9",1 µg/plate,21
same,"revertant colonies, TA98 -S9",1 µg/plate,5
same,"revertant colonies, TA100 +S9",1 µg/plate,-19
same,"revertant colonies, TA100 -S9",1 µg/plate,17
same,"revertant colonies, TA102 +S9",1 µg/plate,-17
same,"revertant colonies, TA102 -S9",1 µg/plate,88
same,"revertant colonies, TA1537 +S9",1 µg/plate,3
same,"revertant colonies, TA1537 -S9",1 µg/plate,5
same,"revertant colonies, TA1538 +S9",1 µg/plate,37
same,"revertant colonies, TA1538 -S9",1 µg/plate,4
same,"revertant colonies, TA97a +S9",5 µg/plate,149
same,"revertant colonies, TA97a -S9",5 µg/plate,73
same,"revertant colonies, TA98 +S9",5 µg/plate,232
same,"revertant colonies, TA98 -S9",5 µg/plate,16
same,"revertant colonies, TA100 +S9",5 µg/plate,-6
same,"revertant colonies, TA100 -S9",5 µg/plate,59
same,"revertant colonies, TA102 +S9",5 µg/plate,51
same,"revertant colonies, TA102 -S9",5 µg/plate,266
same,"revertant colonies, TA1537 +S9",5 µg/plate,22
same,"revertant colonies, TA1537 -S9",5 µg/plate,44
same,"revertant colonies, TA1538 +S9",5 µg/plate,177
same,"revertant colonies, TA1538 -S9",5 µg/plate,13
same,"revertant colonies, TA98 +S9",10 µg/plate,403
same,"revertant colonies, TA98 -S9",10 µg/plate,20
same,"revertant colonies, TA100 +S9",10 µg/plate,17
same,"revertant colonies, TA100 -S9",10 µg/plate,105
same,"revertant colonies, TA1537 +S9",10 µg/plate,30
same,"revertant colonies, TA1537 -S9",10 µg/plate,52
same,"revertant colonies, TA1538 +S9",10 µg/plate,255
same,"revertant colonies, TA1538 -S9",10 µg/plate,14
same,"revertant colonies, TA98 +S9",50 µg/plate,620
same,"revertant colonies, TA98 -S9",50 µg/plate,69
same,"revertant colonies, TA100 +S9",50 µg/plate,52
same,"revertant colonies, TA100 -S9",50 µg/plate,73
same,"revertant colonies, TA1537 +S9",50 µg/plate,94
same,"revertant colonies, TA1537 -S9",50 µg/plate,2688
same,"revertant colonies, TA98 +S9",100 µg/plate,745
same,"revertant colonies, TA98 -S9",100 µg/plate,114
same,"revertant colonies, TA100 +S9",100 µg/plate,85
same,"revertant colonies, TA100 -S9",100 µg/plate,75
same,"revertant colonies, TA1537 +S9",100 µg/plate,686
same,"revertant colonies, TA1537 -S9",100 µg/plate,2058
same,"revertant colonies, TA1537 +S9","100 µg/plate, Table 19 (B) experiment, background 7",500
same,"revertant colonies, TA1537 -S9","100 µg/plate, Table 19 (B) experiment, background 8",608
same,"revertant colonies, TA98 +S9",250 µg/plate,933
same,"revertant colonies, TA98 -S9",250 µg/plate,112
same,"revertant colonies, TA100 +S9",250 µg/plate,89
same,"revertant colonies, TA100 -S9",250 µg/plate,24
same,"revertant colonies, TA1537 +S9",250 µg/plate,3738
same,"revertant colonies, TA1537 -S9",250 µg/plate,434
same,"frameshift mutagenicity (Ames, summary)",two-fold or greater increase in revertants above background and dose dependent response,"frameshift mutagenicity at between 5 and 10 µg/plate in TA97a and TA98, at 5µg/plate in TA1537 and at 1 µg/plate in TA1538"
same,"base-substitution mutagenicity (Ames, summary)","two-fold or greater increase in revertants above background and dose dependent response, TA100, TA102",no significant base-substitution mutations
